Results as given in patent publication US20060035813A1, “Methods and formulations comprising agonists and antagonists of nuclear hormone receptors” (priority 2002, published 2006).
“Also recorded” adds a separate entry of the source.

Tests used:
[1] = system: tyrosine aminotransferase (TAT) in HTC cells; format: cell-based, rat
[2] = target: T1, glucocorticoid receptor (GR) (Rattus norvegicus, UniProt P06536); format: cell-based
T1 construct: expressed in transfected cells; host or cells: Cos7
T1 sequence (P06536 1-795): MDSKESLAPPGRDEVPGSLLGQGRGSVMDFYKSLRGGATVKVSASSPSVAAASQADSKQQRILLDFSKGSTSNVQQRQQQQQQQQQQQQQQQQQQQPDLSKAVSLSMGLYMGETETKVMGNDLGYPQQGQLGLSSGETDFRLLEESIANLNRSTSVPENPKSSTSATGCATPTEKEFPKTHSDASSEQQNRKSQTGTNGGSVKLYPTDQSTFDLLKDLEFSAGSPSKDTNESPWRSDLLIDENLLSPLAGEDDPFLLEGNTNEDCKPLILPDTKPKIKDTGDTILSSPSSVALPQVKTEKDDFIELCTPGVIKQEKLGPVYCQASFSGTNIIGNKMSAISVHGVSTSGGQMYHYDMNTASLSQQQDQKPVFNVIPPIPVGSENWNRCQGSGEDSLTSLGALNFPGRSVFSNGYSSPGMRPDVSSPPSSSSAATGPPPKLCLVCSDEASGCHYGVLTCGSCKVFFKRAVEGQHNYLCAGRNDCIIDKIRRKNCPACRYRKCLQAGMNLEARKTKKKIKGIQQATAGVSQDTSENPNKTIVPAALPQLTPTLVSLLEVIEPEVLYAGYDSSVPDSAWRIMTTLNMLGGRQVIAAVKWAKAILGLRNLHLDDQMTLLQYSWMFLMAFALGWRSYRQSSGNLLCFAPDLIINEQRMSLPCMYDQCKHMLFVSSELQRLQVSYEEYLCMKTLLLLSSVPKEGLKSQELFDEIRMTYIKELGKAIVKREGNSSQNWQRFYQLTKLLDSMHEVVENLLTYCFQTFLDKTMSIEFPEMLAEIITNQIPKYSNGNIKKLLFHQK

[3] = system: constitutive luciferase vector, pGL3 control; format: cell-based
J774.1 cells = format: cell-based
Raw264.7 cells = format: cell-based
[4] = target: T2, progesterone receptor B (PR-B) (Homo sapiens, UniProt P06401); settings: 100 nM progesterone; 2 ng/ml LF+500 ng/ml PA; RU486 up to 1 μM; pLTR luc
T2 sequence (P06401 1-933): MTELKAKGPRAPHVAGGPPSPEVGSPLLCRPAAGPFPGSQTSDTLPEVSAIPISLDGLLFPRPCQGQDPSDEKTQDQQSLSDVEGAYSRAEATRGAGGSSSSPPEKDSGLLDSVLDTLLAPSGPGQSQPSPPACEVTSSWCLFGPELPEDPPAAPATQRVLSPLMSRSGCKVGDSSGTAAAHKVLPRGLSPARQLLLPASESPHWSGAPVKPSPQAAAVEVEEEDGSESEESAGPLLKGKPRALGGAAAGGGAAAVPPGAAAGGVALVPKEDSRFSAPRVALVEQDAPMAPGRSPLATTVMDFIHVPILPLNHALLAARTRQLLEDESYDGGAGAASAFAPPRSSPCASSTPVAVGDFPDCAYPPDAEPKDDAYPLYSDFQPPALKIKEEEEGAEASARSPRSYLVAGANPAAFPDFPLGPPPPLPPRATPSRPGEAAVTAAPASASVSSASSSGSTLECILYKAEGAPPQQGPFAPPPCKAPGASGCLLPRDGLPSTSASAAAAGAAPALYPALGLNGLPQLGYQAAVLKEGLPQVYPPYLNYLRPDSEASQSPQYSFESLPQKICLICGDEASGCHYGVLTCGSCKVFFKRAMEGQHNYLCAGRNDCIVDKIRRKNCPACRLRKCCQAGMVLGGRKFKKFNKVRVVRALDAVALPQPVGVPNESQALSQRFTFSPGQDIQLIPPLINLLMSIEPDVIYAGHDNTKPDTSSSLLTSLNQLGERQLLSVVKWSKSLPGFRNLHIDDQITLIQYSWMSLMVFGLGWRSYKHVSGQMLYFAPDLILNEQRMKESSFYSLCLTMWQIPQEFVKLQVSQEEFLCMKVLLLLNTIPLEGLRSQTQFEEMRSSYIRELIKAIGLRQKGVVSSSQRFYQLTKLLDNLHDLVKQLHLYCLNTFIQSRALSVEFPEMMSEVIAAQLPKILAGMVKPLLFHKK

[5] = target: T1, glucocorticoid receptor (GR); format: binding

C[C@@H]1C[C@H]2[C@@H]3CCC4=CC(=O)C=C[C@]4(C)[C@@]3(F)[C@@H](O)C[C@]2(C)[C@@]1(O)C(=O)CO [Dex, dexamethasone]
Dex concentration as low as which TAT is induced [1]: 10 nM | induction of TAT activity [1]: approximately 10 fold

COc1cccc(-c2cc(=O)c3ccccc3o2)c1N [PD98059]
effect of MAPK inhibitor on dexamethasone-induced TAT activity [1]: repress dexamethasone-induced TAT activity | GR/GRE-specific effect of MAPK pathway inhibitor on Dex-induced GR transactivation [2]: does not affect GR transactivation; also recorded: no GRE specific effect; also recorded: did not alter GR repression; also recorded: does not have any GR specific effect | effect on GRE-luciferase activity [2]: decreased luciferase activity | effect on constitutive luciferase (pGL3 control) [3]: decreased luciferase activity; also recorded: non-specific suppressive effect on luciferase

CC#C[C@]1(O)CC[C@H]2[C@@H]3CCC4=CC(=O)CCC4=C3[C@@H](c3ccc(N(C)C)cc3)C[C@@]21C [RU 486, mifepristone]
effect of pretreatment on LeTx toxicity (J774.1 cells): does not prevent LeTx toxicity | mode of GR repression / antagonism [2]: competitive antagonist | repression of Dex-induced GR transactivation in the presence of LeTx [2]: fully repressed; also recorded: fully repress | effect of pretreatment on LeTx toxicity (Raw264.7 cells): does not prevent LeTx toxicity | repression of progesterone-induced PR-B transactivation in the presence of LeTx [4]: fully repress | competition with [3H] dexamethasone for binding to GR [5]: can compete

C[S+]([O-])c1ccc(-c2nc(-c3ccncc3)c(-c3ccc(F)cc3)[nH]2)cc1 (centres unmarked) [SB203580]
effect of MAPK inhibitor on dexamethasone-induced TAT activity [1]: repress dexamethasone-induced TAT activity | GR/GRE-specific effect of MAPK pathway inhibitor on Dex-induced GR transactivation [2]: has no effect on GR-mediated transactivation

Nc1nccc(-c2c(-c3ccc(F)cc3)ncn2C2CCNCC2)n1 [SB220025]
effect of MAPK inhibitor on dexamethasone-induced TAT activity [1]: repress dexamethasone-induced TAT activity

COc1ccc(C2CNC(=O)C2)cc1OC1CCCC1 (centres unmarked) [rolipram]
effect on LeTx repression of dexamethasone-induced TAT activity [1]: does not prevent LeTx repression | effect of rolipram on LeTx toxicity (Raw264.7 cells): does not prevent LeTx toxicity
